Source: the supplement of paper PMC10307832

How the values were obtained:
Assay in all cases: relative viability (nuclei count vs DMSO), 5 days (fraction); higher = more cells survive
NCI-H596 = system: NCI-H596
Outline: (§1)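 Lung cancer cell lines were seeded in 1536-well plates and dosed by pin tool the next day, with either a single drug or a fixed anchor-drug dose combined with five library-drug doses (not always all listed) spaced in √10 steps. Five days later, one step fixed the cells and stained their nuclei (final 0.05% Triton X-100, 1% formaldehyde, 1 ug/ml Hoechst), and nuclei were counted on 4× images. Relative viability is the nuclei count in treated wells divided by the count in vehicle wells, and each value is the median of duplicate plates.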

NCI-H661 = system: NCI-H661
Outline: as §1

NCI-H1666 = system: NCI-H1666
Outline: as §1

NCI-H23 = system: NCI-H23
Outline: as §1

NCI-H1944 = system: NCI-H1944
Outline: as §1

NCI-H727 = system: NCI-H727
Outline: as §1

NCI-H322M = system: NCI-H322M
Outline: as §1

201T = system: 201T
Outline: as §1

SW 1573 = system: SW 1573
Outline: as §1

NCI-H460 = system: NCI-H460
Outline: as §1

NCI-H2009 = system: NCI-H2009
Outline: as §1

NCI-H2087 = system: NCI-H2087
Outline: as §1

HOP-62 = system: HOP-62
Outline: as §1

LC-2-ad = system: LC-2-ad
Outline: as §1

NCI-H1651 = system: NCI-H1651
Outline: as §1

NCI-H2342 = system: NCI-H2342
Outline: as §1

ChaGo-K-1 = system: ChaGo-K-1
Outline: as §1

COR-L23 = system: COR-L23
Outline: as §1

NCI-H2126 = system: NCI-H2126
Outline: as §1

PC-3 [JPC-3] = system: PC-3 [JPC-3]
Outline: as §1

NCI-H1355 = system: NCI-H1355
Outline: as §1

CAL-12T = system: CAL-12T
Outline: as §1

In the case of C=C1C(=O)O[C@@H](CCCCCCCC)[C@@H]1C(=O)O [C-75] + CC(=O)Nc1cccc(-n2c(=O)n(C3CC3)c(=O)c3c(Nc4ccc(I)cc4F)n(C)c(=O)c(C)c32)c1 [Trametinib] (partner 0.02 µM), the relative viability (NCI-H596; first compound 0.08 µM) is reported as 1.02, the relative viability (NCI-H596; first compound 0.253 µM) is reported as 0.837 and the relative viability (NCI-H596; first compound 0.8 µM) is reported as 0.815. The relative viability (NCI-H596; first compound 2.53 µM) was 0.722, the relative viability (NCI-H596; first compound 8 µM) was 0.744 and the relative viability (NCI-H661; first compound 0.08 µM) was 0.524. It also gave a relative viability (NCI-H661; first compound 0.253 µM) of 0.612, a relative viability (NCI-H661; first compound 0.8 µM) of 0.516 and a relative viability (NCI-H661; first compound 2.53 µM) of 0.429. The relative viability (NCI-H661; first compound 8 µM) was 0.458, the relative viability (NCI-H1666; first compound 0.08 µM) was 0.869 and the relative viability (NCI-H1666; first compound 0.253 µM) was 1.01. It also gave a relative viability (NCI-H1666; first compound 0.8 µM) of 0.807, a relative viability (NCI-H1666; first compound 8 µM) of 0.728 and a relative viability (NCI-H23; first compound 0.08 µM) of 0.361. It also gave a relative viability (NCI-H23; first compound 0.253 µM) of 0.436, a relative viability (NCI-H23; first compound 0.8 µM) of 0.343 and a relative viability (NCI-H23; first compound 2.53 µM) of 0.291. For the same compound, the relative viability (NCI-H23; first compound 8 µM) was 0.321, the relative viability (NCI-H1944; first compound 0.08 µM) was 0.397 and the relative viability (NCI-H1944; first compound 0.253 µM) was 0.465. For the same compound, the relative viability (NCI-H1944; first compound 0.8 µM) was 0.361, the relative viability (NCI-H1944; first compound 2.53 µM) was 0.367 and the relative viability (NCI-H1944; first compound 8 µM) was 0.371. It also gave a relative viability (NCI-H727; first compound 0.08 µM) of 0.377, a relative viability (NCI-H727; first compound 0.253 µM) of 0.378 and a relative viability (NCI-H727; first compound 0.8 µM) of 0.448. The relative viability (NCI-H727; first compound 2.53 µM) was 0.393, the relative viability (NCI-H727; first compound 8 µM) was 0.352 and the relative viability (NCI-H322M; first compound 0.08 µM) was 0.513. The relative viability (NCI-H322M; first compound 0.253 µM) was 0.673, the relative viability (NCI-H322M; first compound 0.8 µM) was 0.547 and the relative viability (NCI-H322M; first compound 8 µM) was 0.508. For the same compound, the relative viability (201T; first compound 0.08 µM) was 0.716, the relative viability (201T; first compound 0.253 µM) was 0.824 and the relative viability (201T; first compound 0.8 µM) was 0.731. For the same compound, the relative viability (201T; first compound 2.53 µM) was 0.692, the relative viability (201T; first compound 8 µM) was 0.763 and the relative viability (SW 1573; first compound 0.08 µM) was 0.586. For the same compound, the relative viability (SW 1573; first compound 0.253 µM) was 0.596, the relative viability (SW 1573; first compound 0.8 µM) was 0.547 and the relative viability (SW 1573; first compound 2.53 µM) was 0.553. For the same compound, the relative viability (SW 1573; first compound 8 µM) was 0.557, the relative viability (NCI-H460; first compound 0.08 µM) was 0.215 and the relative viability (NCI-H460; first compound 0.253 µM) was 0.178. It also gave a relative viability (NCI-H460; first compound 0.8 µM) of 0.123, a relative viability (NCI-H460; first compound 2.53 µM) of 0.104 and a relative viability (NCI-H460; first compound 8 µM) of 0.151. For the same compound, the relative viability (NCI-H2009; first compound 0.08 µM) was 0.277, the relative viability (NCI-H2009; first compound 0.253 µM) was 0.249 and the relative viability (NCI-H2009; first compound 0.8 µM) was 0.282. It also gave a relative viability (NCI-H2009; first compound 2.53 µM) of 0.262, a relative viability (NCI-H2009; first compound 8 µM) of 0.332 and a relative viability (NCI-H2087; first compound 0.08 µM) of 0.247. For the same compound, the relative viability (NCI-H2087; first compound 0.253 µM) was 0.24, the relative viability (NCI-H2087; first compound 0.8 µM) was 0.179 and the relative viability (NCI-H2087; first compound 2.53 µM) was 0.16. For the same compound, the relative viability (NCI-H2087; first compound 8 µM) was 0.212, the relative viability (HOP-62; first compound 0.08 µM) was 0.354 and the relative viability (HOP-62; first compound 0.253 µM) was 0.43. For the same compound, the relative viability (HOP-62; first compound 0.8 µM) was 0.358, the relative viability (HOP-62; first compound 2.53 µM) was 0.321 and the relative viability (HOP-62; first compound 8 µM) was 0.359. It also gave a relative viability (LC-2-ad; first compound 0.08 µM) of 0.883, a relative viability (LC-2-ad; first compound 0.253 µM) of 0.954 and a relative viability (LC-2-ad; first compound 0.8 µM) of 0.832. The relative viability (LC-2-ad; first compound 2.53 µM) was 0.861, the relative viability (LC-2-ad; first compound 8 µM) was 0.926 and the relative viability (NCI-H1651; first compound 0.08 µM) was 0.815. The relative viability (NCI-H1651; first compound 0.253 µM) was 0.802, the relative viability (NCI-H1651; first compound 0.8 µM) was 0.862 and the relative viability (NCI-H1651; first compound 2.53 µM) was 0.515. It also gave a relative viability (NCI-H1651; first compound 8 µM) of 0.892, a relative viability (NCI-H2342; first compound 0.08 µM) of 0.956 and a relative viability (NCI-H2342; first compound 0.253 µM) of 0.813. The relative viability (NCI-H2342; first compound 0.8 µM) was 0.687, the relative viability (NCI-H2342; first compound 2.53 µM) was 0.65 and the relative viability (NCI-H2342; first compound 8 µM) was 0.917. The relative viability (ChaGo-K-1; first compound 0.08 µM) was 0.878, the relative viability (ChaGo-K-1; first compound 0.253 µM) was 0.875 and the relative viability (ChaGo-K-1; first compound 0.8 µM) was 0.819. The relative viability (ChaGo-K-1; first compound 2.53 µM) was 0.538, the relative viability (ChaGo-K-1; first compound 8 µM) was 0.907 and the relative viability (COR-L23; first compound 0.08 µM) was 0.636. For the same compound, the relative viability (COR-L23; first compound 0.253 µM) was 0.58, the relative viability (COR-L23; first compound 0.8 µM) was 0.562 and the relative viability (COR-L23; first compound 2.53 µM) was 0.485. It also gave a relative viability (COR-L23; first compound 8 µM) of 0.569, a relative viability (NCI-H2126; first compound 0.08 µM) of 0.587 and a relative viability (NCI-H2126; first compound 0.253 µM) of 0.587. For the same compound, the relative viability (NCI-H2126; first compound 0.8 µM) was 0.581, the relative viability (NCI-H2126; first compound 2.53 µM) was 0.553 and the relative viability (NCI-H2126; first compound 8 µM) was 0.502. For the same compound, the relative viability (PC-3 [JPC-3]; first compound 0.08 µM) was 0.744, the relative viability (PC-3 [JPC-3]; first compound 0.253 µM) was 0.651 and the relative viability (PC-3 [JPC-3]; first compound 0.8 µM) was 0.657. The relative viability (PC-3 [JPC-3]; first compound 2.53 µM) was 0.64, the relative viability (PC-3 [JPC-3]; first compound 8 µM) was 0.915 and the relative viability (NCI-H1355; first compound 0.08 µM) was 0.436. For the same compound, the relative viability (NCI-H1355; first compound 0.253 µM) was 0.406, the relative viability (NCI-H1355; first compound 0.8 µM) was 0.384 and the relative viability (NCI-H1355; first compound 2.53 µM) was 0.343. For the same compound, the relative viability (NCI-H1355; first compound 8 µM) was 0.448, the relative viability (CAL-12T; first compound 0.08 µM) was 0.373 and the relative viability (CAL-12T; first compound 0.253 µM) was 0.455. It also gave a relative viability (CAL-12T; first compound 0.8 µM) of 0.31, a relative viability (CAL-12T; first compound 2.53 µM) of 0.301 and a relative viability (CAL-12T; first compound 8 µM) of 0.313.
